In patent publication US9440982B2 (Eolas Therapeutics, Inc., priority 2012, dated 2016) one finds IC50 data, which are given here for 22 compounds.

Where only a bound is given, the exact number is not on record here.

One test deals with T1, OX1 (Homo sapiens, UniProt O43613).
T1 construct: expressed in transfected cells; host or cells: CHO (CHO-OX1, kept under selection antibiotic)
T1 sequence (O43613 1-425): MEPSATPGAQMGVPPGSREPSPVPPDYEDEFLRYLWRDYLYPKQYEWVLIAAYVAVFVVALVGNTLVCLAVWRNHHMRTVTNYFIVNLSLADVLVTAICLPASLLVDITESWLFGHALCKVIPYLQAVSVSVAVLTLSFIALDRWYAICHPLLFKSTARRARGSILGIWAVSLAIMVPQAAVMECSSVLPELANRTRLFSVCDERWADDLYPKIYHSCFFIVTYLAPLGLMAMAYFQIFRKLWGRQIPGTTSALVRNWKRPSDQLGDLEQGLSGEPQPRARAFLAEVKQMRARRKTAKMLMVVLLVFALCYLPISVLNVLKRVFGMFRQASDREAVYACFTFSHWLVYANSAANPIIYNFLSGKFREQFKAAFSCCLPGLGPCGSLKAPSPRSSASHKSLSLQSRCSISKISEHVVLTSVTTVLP
Put plainly: Orexin receptor cell-based functional assay, [Ca2+]i by FLIPR, CHO-OX1 cells. The conditions noted are these: CHO-OX1 cells, [Ca2+]i by FLIPR, antagonist dose-range 0.1 nM-10 μM, EC90 of OXA; read-out: OX1. On the procedure:
Measurement of [Ca^2+]i using a FLIPR: CHO—OX1 or CHO—OX2 cells are seeded into black-walled clear-base 384-well plates (Costar) at a density of 20,000 cells per well in F12-K medium supplemented with 10% FBS and selection antibiotic (500 ug/ml G418 or 15 ug/ml Blasticidin) and cultured overnight. The cells are incubated with equal volume of calcium4 loading buffer (Molecular Devices, Inc.) containing 2.5 mM probenecid at 37° C. for 30 min, followed by putative OX1 or OX2 receptor antagonists (dose-range 0.1 nM-10 μM) for another 30 min.
The cells are incubated with equal volume of calcium6 loading buffer (Molecular Devices, Inc.) containing 2.5 mM probenecid at 37° C. for 2 h, followed by test compounds (dose-range 0.1 nM-10 μM) for another 30 min.
As for `Cc1ccc(-c2ccnn2C)c(C(=O)N2CCC[C@@H](C)[C@H]2CNc2nc3cc(Cl)ccc3o2)c1` [Example A50, ((2S,3R)-2-(((5-Chlorobenzo[d]oxazol-2-yl)amino)methyl)-3-methylpiperidin-1-yl)(5-methyl-2-(1-methyl-1H-pyrazol-5-yl)phenyl)methanone], the IC50 was determined as 0.23 µM.
Same read-out and setting: then `Cc1ccc(-c2cnn(C)c2)c(C(=O)N2CCC[C@@H](C)[C@H]2COc2ccc(C(F)(F)F)cn2)c1` [Example A114, ((2S,3R)-3-Methyl-2-(((5-(trifluoromethyl)pyridin-2-yl)oxy)methyl)piperidin-1-yl)(5-methyl-2-(1-methyl-1H-pyrazol-4-yl)phenyl)methanone], with greater than 1 µM.

Staying with this test, now noted: Table 2; CHO-OX1 cells, EC90 of OXA; read-out: IC50 Bioactivity OX1.
Take `Cc1nc(-c2ccccc2)c(C(=O)N2CC(NCCO)CCC2CNC(=O)c2cccc3cccnc23)s1` (racemic) [Example 47, N-((5-(2-Hydroxyethylamino)-1-(2-methyl-4-phenylthiazole-5-carbonyl)piperidin-2-yl)methyl)quinoline-8-carboxamide]: the IC50 was less than 10 µM.
As for `Cc1nc(C(=O)N2CCC[C@@H](C)[C@H]2CNc2nc3ccccc3s2)c(-c2ccc(F)cc2)s1` (racemic) [Example 72, rac-cis-(2-((Benzo[d]thiazol-2-ylamino)methyl)-3-methylpiperidin-1-yl)(5-(4-fluorophenyl)-2-methylthiazol-4-yl)methanone], the IC50 turned out to be 0.006 µM.
In the case of `CCc1cnc(NC[C@@H]2[C@H](CC)CCCN2C(=O)c2nc(C)sc2-c2ccc(F)cc2)nc1` (racemic) [Example 78, rac-cis-(3-Ethyl-2-(((5-ethylpyrimidin-2-yl)amino)methyl)piperidin-1-yl)(5-(4-fluorophenyl)-2-methylthiazol-4-yl)methanone], the IC50 was found to be 0.002 µM.
The same measure, in the same setting: then `CC(=O)O[C@H]1C[C@@H](CNC(=O)c2cccc3cccnc23)N(C(=O)c2ccccc2-c2ccccc2)C1` [Example 131, (3S,5S)-1-([1,1′-Biphenyl]-2-carbonyl)-5-((quinoline-8-carboxamido)methyl)pyrrolidin-3-yl acetate], with 0.053 µM; and `Cc1nc(C(=O)N2CCC[C@@H](C)[C@H]2CNc2cccc(C(F)(F)F)n2)c(-c2ccc(F)cc2)s1` (racemic) [Example 87, rac-cis-(3-Methyl-2-(((6-(trifluoromethyl)pyridin-2-yl)amino)methyl)piperidin-1-yl) (5-(4-fluorophenyl)-2-methylthiazol-4-yl)methanone], with 0.22 µM; and `Cc1ccc(-n2cncn2)c(C(=O)N2CCC[C@@H](C)[C@H]2CNc2ccc(C(F)(F)F)cn2)c1` (racemic) [Example 117, rac-cis-(3-Methyl-2-(((5-(trifluoromethyl)pyridin-2-yl)amino)methyl)piperidin-1-yl)(5-methyl-2-(1H-1,2,4-triazol-1-yl)phenyl)methanone], with 0.038 µM.
For the compound `COC1CCC(CNC(=O)c2cccc3cccnc23)N(C(=O)c2nc(C)sc2-c2cccc(F)c2)C1` (racemic) [Example 50, N-((1-(5-(3-Fluorophenyl)-2-methylthiazole-4-carbonyl)-5-methoxypiperidin-2-yl)methyl)quinoline-8-carboxamide], the IC50 is 0.007 µM.
In the case of `Cc1nc(C(=O)N2C[C@H]3CCC[C@H]3C2COc2ccc(C(F)(F)F)cn2)c(-c2ccc(F)cc2)s1` (mixture of isomers) [Example 101, (5-(4-Fluorophenyl)-2-methylthiazol-4-yl)(1-(((5-(trifluoromethyl)pyridin-2-yl)oxy)methyl)hexahydrocyclopenta[c]pyrrol-2(1H)-yl)methanone], the IC50 is 3 µM.
Still for that read-out and setting: then `Cc1nc(-c2ccccc2)c(C(=O)N2CC3CCCCC3C2CNC(=O)c2cccc3cccnc23)s1` (single isomer, unassigned) [Example 65], with greater than 2 µM; and `Cc1ccc(-c2cnn(CCN3CCOCC3)c2)c(C(=O)N2CCC[C@@H](C)[C@H]2CNc2ccc(C(F)(F)F)cn2)c1` (racemic) [Example 111, rac-cis-(3-Methyl-2-(((5-(trifluoromethyl)pyridin-2-yl)amino)methyl)piperidin-1-yl)(5-methyl-2-(1-(2-morpholinoethyl)-1H-pyrazol-4-yl)phenyl)methanone], with greater than 1 µM; and `CCNC1CCC(CNC(=O)c2cccc3cccnc23)N(C(=O)c2sc(C)nc2-c2ccccc2)C1` (racemic) [Example 46, N-((5-(Ethylamino)-1-(2-methyl-4-phenylthiazole-5-carbonyl)piperidin-2-yl)methyl)quinoline-8-carboxamide], with less than 10 µM.
As for `Cc1nc(-c2ccccc2)c(C(=O)N2CC[C@H](O)[C@H]2CNC(=O)c2cccc3cccnc23)s1` [Example 130, N-(((2R,3S)-3-Hydroxy-1-(2-methyl-4-phenylthiazole-5-carbonyl)pyrrolidin-2-yl)methyl)quinoline-8-carboxamide], the IC50 came out at 0.006 µM.
Same read-out and setting: as for `Cc1nc(C(=O)N2CCC[C@@H](C)[C@H]2CNC(=O)c2cccc3occc23)c(-c2ccc(F)cc2)s1` (racemic) [Example 63, rac-cis-N-((1-(5-(4-Fluorophenyl)-2-methylthiazole-4-carbonyl)-3-methylpiperidin-2-yl)methyl)benzofuran-4-carboxamide], the figure is 0.002 µM.
The same measure, in the same setting: then `Cc1nc(C(=O)N2C[C@H]3CCC[C@H]3C2CNc2nc3ccccc3o2)c(-c2ccc(F)cc2)s1` (mixture of isomers) [Example 100, (1-((Benzo[d]oxazol-2-ylamino)methyl)hexahydrocyclopenta[c]pyrrol-2(1H)-yl)(5-(4-fluorophenyl)-2-methylthiazol-4-yl)methanone], with 0.008 µM; and `O=C1C[C@@H](CNC(=O)c2cccc3cccnc23)N(C(=O)c2ccccc2-c2ccccc2)C1` [Example 6, (S)—N-((1-(Biphenylcarbonyl)-4-oxopyrrolidin-2-yl)methyl)quinoline-8-carboxamide], with 0.03 µM; and `COc1c(F)cccc1C(=O)N1CCC[C@@H](C)[C@H]1CNC(=O)c1cccc2cccnc12` (racemic) [Example 10, rac-cis-N-((1-(3-Fluoro-2-methoxybenzoyl)-3-methylpiperidin-2-yl)methyl)quinoline-8-carboxamide], with less than 3 µM.
The same measure, in the same setting: then `Cc1nc(C(=O)N2CCC[C@@H](C)[C@H]2CNc2nccnc2Cl)c(-c2ccc(F)cc2)s1` (racemic) [Example 121, rac-cis-(2-(((3-Chloropyrazin-2-yl)amino)methyl)-3-methylpiperidin-1-yl)(5-(4-fluorophenyl)-2-methylthiazol-4-yl)methanone], with greater than 1 µM.
`CC1CCCC(CCOc2ccccc2)N1C(=O)c1ccccc1-c1ccccc1` (racemic) [Example 31, rac-Biphenyl-2-yl(2-methyl-6-(2-phenoxyethyl)piperidin-1-yl)methanone]: the IC50 worked out at 0.01 µM.
On the same count and under the same terms, then `Cc1nc(C(=O)N2CCC[C@@H](C)[C@H]2CNc2ccc(C#N)cn2)c(-c2ccc(F)cc2)s1` (racemic) [Example 91, rac-cis-6-(((1-(5-(4-Fluorophenyl)-2-methylthiazole-4-carbonyl)-3-methylpiperidin-2-yl)methyl)amino)nicotinonitrile], with 0.14 µM; and `CNC1CCC(CNC(=O)c2cccc3cccnc23)N(C(=O)c2sc(C)nc2-c2ccccc2)C1` (racemic) [Example 45, N-((1-(2-Methyl-4-phenylthiazole-5-carbonyl)-5-(methylamino)piperidin-2-yl)methyl)quinoline-8-carboxamide], with less than 10 µM.
